From PubChem BioAssay (NCI)
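Compound exposure: 48 hours, 5 concentrations, 96-well plates. TGI: total growth inhibition.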

These compounds were tested on SK-MEL-5 melanoma (assay: growth of human tumour cells (NCI), 48 h).

Q: `CC(C)(C)OC(=O)C1=C(O)C(C(=O)OC(C)(C)C)C23CCCCC12C(C(=O)OC(C)(C)C)C(O)=C3C(=O)OC(C)(C)C` (stereo not drawn) was tested. Which TGI did it give?
A: > 100 µM

Q: For `CC[C@H]1CC(=O)c2c(cc3c(c2O)C(=O)c2ccccc2C3=O)[C@@]1(C#N)C(=O)OC(C)(C)C`, which TGI is on record?
A: 3.48 µM

Q: How did the TGI turn out when `COc1cc(C(=O)Nc2cccc3ccccc23)c(Br)c(OC)c1OC` was run?
A: > 100 µM

Q: For `Cn1c(C2CCCc3c2c2ccccc2n3C)cc2ccccc21` (stereo not drawn), which TGI is on record?
A: > 318 µM

What follows are compounds tested on COLO 205 colon (assay: growth of human tumour cells (NCI), 48 h).

Q: With `COc1cc(/C=C2\CCC(C)(CN(C)C)C2=O)cc(OC)c1OC` (stereo not drawn) as the compound, how does the TGI read?
A: > 100 µM

Q: For `CC(C)(C)OC(=O)C1=C(O)C(C(=O)OC(C)(C)C)C23CCCCC12C(C(=O)OC(C)(C)C)C(O)=C3C(=O)OC(C)(C)C` (stereo not drawn), which TGI is on record?
A: > 100 µM

Q: How did the TGI turn out when `CC[C@H]1CC(=O)c2c(cc3c(c2O)C(=O)c2ccccc2C3=O)[C@@]1(C#N)C(=O)OC(C)(C)C` was run?
A: 3.58 µM

Q: With `COc1cc(C(=O)Nc2cccc3ccccc23)c(Br)c(OC)c1OC` as the compound, how does the TGI read?
A: > 100 µM

Q: With `Cn1c(C2CCCc3c2c2ccccc2n3C)cc2ccccc21` (stereo not drawn) as the compound, how does the TGI read?
A: > 318 µM

These compounds were tested on OVCAR-3 ovarian (assay: growth of human tumour cells (NCI), 48 h).

Q: For `COc1cc(/C=C2\CCC(C)(CN(C)C)C2=O)cc(OC)c1OC` (stereo not drawn), which TGI is on record?
A: > 100 µM

Q: Which TGI does the source give for `CC(C)(C)OC(=O)C1=C(O)C(C(=O)OC(C)(C)C)C23CCCCC12C(C(=O)OC(C)(C)C)C(O)=C3C(=O)OC(C)(C)C` (stereo not drawn) here?
A: > 100 µM

Q: With `CC[C@H]1CC(=O)c2c(cc3c(c2O)C(=O)c2ccccc2C3=O)[C@@]1(C#N)C(=O)OC(C)(C)C` as the compound, how does the TGI read?
A: 11 µM

Q: `COc1cc(C(=O)Nc2cccc3ccccc23)c(Br)c(OC)c1OC` was tested. Which TGI did it give?
A: > 100 µM

Q: `Cn1c(C2CCCc3c2c2ccccc2n3C)cc2ccccc21` (stereo not drawn) was tested. Which TGI did it give?
A: > 318 µM

Each compound was assayed on SF-268 CNS (assay: growth of human tumour cells (NCI), 48 h).

Q: `COc1cc(/C=C2\CCC(C)(CN(C)C)C2=O)cc(OC)c1OC` (stereo not drawn) was tested. Which TGI did it give?
A: > 100 µM

Q: For `CC(C)(C)OC(=O)C1=C(O)C(C(=O)OC(C)(C)C)C23CCCCC12C(C(=O)OC(C)(C)C)C(O)=C3C(=O)OC(C)(C)C` (stereo not drawn), which TGI is on record?
A: > 100 µM

Q: With `CC[C@H]1CC(=O)c2c(cc3c(c2O)C(=O)c2ccccc2C3=O)[C@@]1(C#N)C(=O)OC(C)(C)C` as the compound, how does the TGI read?
A: > 100 µM

Q: How did the TGI turn out when `COc1cc(C(=O)Nc2cccc3ccccc23)c(Br)c(OC)c1OC` was run?
A: > 100 µM

Q: Which TGI does the source give for `Cn1c(C2CCCc3c2c2ccccc2n3C)cc2ccccc21` (stereo not drawn) here?
A: > 318 µM

Each compound was assayed on EKVX NSCLC (assay: growth of human tumour cells (NCI), 48 h).

Q: How did the TGI turn out when `COc1cc(/C=C2\CCC(C)(CN(C)C)C2=O)cc(OC)c1OC` (stereo not drawn) was run?
A: > 88.3 µM

Q: `CC(C)(C)OC(=O)C1=C(O)C(C(=O)OC(C)(C)C)C23CCCCC12C(C(=O)OC(C)(C)C)C(O)=C3C(=O)OC(C)(C)C` (stereo not drawn) was tested. Which TGI did it give?
A: > 100 µM

Q: Which TGI does the source give for `CC[C@H]1CC(=O)c2c(cc3c(c2O)C(=O)c2ccccc2C3=O)[C@@]1(C#N)C(=O)OC(C)(C)C` here?
A: 36.2 µM

Q: For `COc1cc(C(=O)Nc2cccc3ccccc23)c(Br)c(OC)c1OC`, which TGI is on record?
A: > 100 µM

Q: With `Cn1c(C2CCCc3c2c2ccccc2n3C)cc2ccccc21` (stereo not drawn) as the compound, how does the TGI read?
A: > 318 µM

The compounds below were run on MOLT-4 leukemia (assay: growth of human tumour cells (NCI), 48 h).

Q: With `COc1cc(/C=C2\CCC(C)(CN(C)C)C2=O)cc(OC)c1OC` (stereo not drawn) as the compound, how does the TGI read?
A: > 100 µM

Q: Which TGI does the source give for `CC(C)(C)OC(=O)C1=C(O)C(C(=O)OC(C)(C)C)C23CCCCC12C(C(=O)OC(C)(C)C)C(O)=C3C(=O)OC(C)(C)C` (stereo not drawn) here?
A: > 100 µM

Q: Which TGI does the source give for `CC[C@H]1CC(=O)c2c(cc3c(c2O)C(=O)c2ccccc2C3=O)[C@@]1(C#N)C(=O)OC(C)(C)C` here?
A: 8.62 µM

Q: With `COc1cc(C(=O)Nc2cccc3ccccc23)c(Br)c(OC)c1OC` as the compound, how does the TGI read?
A: > 100 µM

Q: For `Cn1c(C2CCCc3c2c2ccccc2n3C)cc2ccccc21` (stereo not drawn), which TGI is on record?
A: > 318 µM

What follows are compounds tested on OVCAR-5 ovarian (assay: growth of human tumour cells (NCI), 48 h).

Q: Which TGI does the source give for `COc1cc(/C=C2\CCC(C)(CN(C)C)C2=O)cc(OC)c1OC` (stereo not drawn) here?
A: > 100 µM

Q: With `CC(C)(C)OC(=O)C1=C(O)C(C(=O)OC(C)(C)C)C23CCCCC12C(C(=O)OC(C)(C)C)C(O)=C3C(=O)OC(C)(C)C` (stereo not drawn) as the compound, how does the TGI read?
A: > 100 µM

Q: How did the TGI turn out when `CC[C@H]1CC(=O)c2c(cc3c(c2O)C(=O)c2ccccc2C3=O)[C@@]1(C#N)C(=O)OC(C)(C)C` was run?
A: 46.5 µM

Q: With `COc1cc(C(=O)Nc2cccc3ccccc23)c(Br)c(OC)c1OC` as the compound, how does the TGI read?
A: > 100 µM

Q: With `Cn1c(C2CCCc3c2c2ccccc2n3C)cc2ccccc21` (stereo not drawn) as the compound, how does the TGI read?
A: > 318 µM

The compounds below were run on RXF 393 renal (assay: growth of human tumour cells (NCI), 48 h).

Q: With `COc1cc(/C=C2\CCC(C)(CN(C)C)C2=O)cc(OC)c1OC` (stereo not drawn) as the compound, how does the TGI read?
A: > 100 µM

Q: For `CC(C)(C)OC(=O)C1=C(O)C(C(=O)OC(C)(C)C)C23CCCCC12C(C(=O)OC(C)(C)C)C(O)=C3C(=O)OC(C)(C)C` (stereo not drawn), which TGI is on record?
A: > 100 µM

Q: Which TGI does the source give for `CC[C@H]1CC(=O)c2c(cc3c(c2O)C(=O)c2ccccc2C3=O)[C@@]1(C#N)C(=O)OC(C)(C)C` here?
A: 23.1 µM

Q: Which TGI does the source give for `COc1cc(C(=O)Nc2cccc3ccccc23)c(Br)c(OC)c1OC` here?
A: > 100 µM

Q: With `Cn1c(C2CCCc3c2c2ccccc2n3C)cc2ccccc21` (stereo not drawn) as the compound, how does the TGI read?
A: > 318 µM

These compounds were tested on SK-OV-3 ovarian (assay: growth of human tumour cells (NCI), 48 h).

Q: Which TGI does the source give for `COc1cc(/C=C2\CCC(C)(CN(C)C)C2=O)cc(OC)c1OC` (stereo not drawn) here?
A: > 100 µM

Q: For `CC(C)(C)OC(=O)C1=C(O)C(C(=O)OC(C)(C)C)C23CCCCC12C(C(=O)OC(C)(C)C)C(O)=C3C(=O)OC(C)(C)C` (stereo not drawn), which TGI is on record?
A: > 100 µM

Q: How did the TGI turn out when `CC[C@H]1CC(=O)c2c(cc3c(c2O)C(=O)c2ccccc2C3=O)[C@@]1(C#N)C(=O)OC(C)(C)C` was run?
A: > 100 µM

Q: With `COc1cc(C(=O)Nc2cccc3ccccc23)c(Br)c(OC)c1OC` as the compound, how does the TGI read?
A: > 100 µM

Q: `Cn1c(C2CCCc3c2c2ccccc2n3C)cc2ccccc21` (stereo not drawn) was tested. Which TGI did it give?
A: > 318 µM

The compounds below were run on LOX IMVI melanoma (assay: growth of human tumour cells (NCI), 48 h).

Q: With `COc1cc(/C=C2\CCC(C)(CN(C)C)C2=O)cc(OC)c1OC` (stereo not drawn) as the compound, how does the TGI read?
A: > 100 µM

Q: With `CC(C)(C)OC(=O)C1=C(O)C(C(=O)OC(C)(C)C)C23CCCCC12C(C(=O)OC(C)(C)C)C(O)=C3C(=O)OC(C)(C)C` (stereo not drawn) as the compound, how does the TGI read?
A: > 100 µM

Q: For `CC[C@H]1CC(=O)c2c(cc3c(c2O)C(=O)c2ccccc2C3=O)[C@@]1(C#N)C(=O)OC(C)(C)C`, which TGI is on record?
A: 36.8 µM

Q: How did the TGI turn out when `COc1cc(C(=O)Nc2cccc3ccccc23)c(Br)c(OC)c1OC` was run?
A: > 100 µM

Q: How did the TGI turn out when `Cn1c(C2CCCc3c2c2ccccc2n3C)cc2ccccc21` (stereo not drawn) was run?
A: > 318 µM

The compounds below were run on SNB-75 CNS (assay: growth of human tumour cells (NCI), 48 h).

Q: `COc1cc(/C=C2\CCC(C)(CN(C)C)C2=O)cc(OC)c1OC` (stereo not drawn) was tested. Which TGI did it give?
A: > 100 µM

Q: Which TGI does the source give for `CC(C)(C)OC(=O)C1=C(O)C(C(=O)OC(C)(C)C)C23CCCCC12C(C(=O)OC(C)(C)C)C(O)=C3C(=O)OC(C)(C)C` (stereo not drawn) here?
A: > 100 µM

Q: With `CC[C@H]1CC(=O)c2c(cc3c(c2O)C(=O)c2ccccc2C3=O)[C@@]1(C#N)C(=O)OC(C)(C)C` as the compound, how does the TGI read?
A: 32 µM

Q: With `COc1cc(C(=O)Nc2cccc3ccccc23)c(Br)c(OC)c1OC` as the compound, how does the TGI read?
A: > 100 µM

The compounds below were run on HT29 colon (assay: growth of human tumour cells (NCI), 48 h).

Q: Which TGI does the source give for `COc1cc(/C=C2\CCC(C)(CN(C)C)C2=O)cc(OC)c1OC` (stereo not drawn) here?
A: > 100 µM

Q: Which TGI does the source give for `CC(C)(C)OC(=O)C1=C(O)C(C(=O)OC(C)(C)C)C23CCCCC12C(C(=O)OC(C)(C)C)C(O)=C3C(=O)OC(C)(C)C` (stereo not drawn) here?
A: > 100 µM

Q: `CC[C@H]1CC(=O)c2c(cc3c(c2O)C(=O)c2ccccc2C3=O)[C@@]1(C#N)C(=O)OC(C)(C)C` was tested. Which TGI did it give?
A: 10.1 µM

Q: Which TGI does the source give for `COc1cc(C(=O)Nc2cccc3ccccc23)c(Br)c(OC)c1OC` here?
A: > 100 µM

Q: `Cn1c(C2CCCc3c2c2ccccc2n3C)cc2ccccc21` (stereo not drawn) was tested. Which TGI did it give?
A: > 318 µM

These compounds were tested on TK-10 renal (assay: growth of human tumour cells (NCI), 48 h).

Q: With `COc1cc(/C=C2\CCC(C)(CN(C)C)C2=O)cc(OC)c1OC` (stereo not drawn) as the compound, how does the TGI read?
A: > 100 µM

Q: With `CC(C)(C)OC(=O)C1=C(O)C(C(=O)OC(C)(C)C)C23CCCCC12C(C(=O)OC(C)(C)C)C(O)=C3C(=O)OC(C)(C)C` (stereo not drawn) as the compound, how does the TGI read?
A: > 100 µM

Q: `CC[C@H]1CC(=O)c2c(cc3c(c2O)C(=O)c2ccccc2C3=O)[C@@]1(C#N)C(=O)OC(C)(C)C` was tested. Which TGI did it give?
A: 37.5 µM

Q: Which TGI does the source give for `COc1cc(C(=O)Nc2cccc3ccccc23)c(Br)c(OC)c1OC` here?
A: > 100 µM

Q: With `Cn1c(C2CCCc3c2c2ccccc2n3C)cc2ccccc21` (stereo not drawn) as the compound, how does the TGI read?
A: > 318 µM

These compounds were tested on IGROV1 ovarian (assay: growth of human tumour cells (NCI), 48 h).

Q: Which TGI does the source give for `COc1cc(/C=C2\CCC(C)(CN(C)C)C2=O)cc(OC)c1OC` (stereo not drawn) here?
A: > 100 µM

Q: Which TGI does the source give for `CC(C)(C)OC(=O)C1=C(O)C(C(=O)OC(C)(C)C)C23CCCCC12C(C(=O)OC(C)(C)C)C(O)=C3C(=O)OC(C)(C)C` (stereo not drawn) here?
A: > 100 µM

Q: `CC[C@H]1CC(=O)c2c(cc3c(c2O)C(=O)c2ccccc2C3=O)[C@@]1(C#N)C(=O)OC(C)(C)C` was tested. Which TGI did it give?
A: 7.11 µM

Q: For `COc1cc(C(=O)Nc2cccc3ccccc23)c(Br)c(OC)c1OC`, which TGI is on record?
A: > 100 µM

Q: `Cn1c(C2CCCc3c2c2ccccc2n3C)cc2ccccc21` (stereo not drawn) was tested. Which TGI did it give?
A: > 318 µM
